Measured values published in US8541588B2, “Sulfonamide derivatives” (Pfizer Limited, priority 2009, dated 2013).

Molecular target: T1, Nav1.7 (or SCN9A) channel; HEK cells stably transfected with hSCN9A (Homo sapiens, UniProt Q15858)
T1 construct: expressed in transfected cells
Assay: Nav1.7 block, PatchXpress 7000 automated whole-cell voltage clamp, estimated IC50 (EIC50)
Format: cell-based
Conditions: PatchXpress platform; hSCN9A HEK cells held at V1/2 of inactivation; estimated IC50

T1 sequence (Q15858 whole entry): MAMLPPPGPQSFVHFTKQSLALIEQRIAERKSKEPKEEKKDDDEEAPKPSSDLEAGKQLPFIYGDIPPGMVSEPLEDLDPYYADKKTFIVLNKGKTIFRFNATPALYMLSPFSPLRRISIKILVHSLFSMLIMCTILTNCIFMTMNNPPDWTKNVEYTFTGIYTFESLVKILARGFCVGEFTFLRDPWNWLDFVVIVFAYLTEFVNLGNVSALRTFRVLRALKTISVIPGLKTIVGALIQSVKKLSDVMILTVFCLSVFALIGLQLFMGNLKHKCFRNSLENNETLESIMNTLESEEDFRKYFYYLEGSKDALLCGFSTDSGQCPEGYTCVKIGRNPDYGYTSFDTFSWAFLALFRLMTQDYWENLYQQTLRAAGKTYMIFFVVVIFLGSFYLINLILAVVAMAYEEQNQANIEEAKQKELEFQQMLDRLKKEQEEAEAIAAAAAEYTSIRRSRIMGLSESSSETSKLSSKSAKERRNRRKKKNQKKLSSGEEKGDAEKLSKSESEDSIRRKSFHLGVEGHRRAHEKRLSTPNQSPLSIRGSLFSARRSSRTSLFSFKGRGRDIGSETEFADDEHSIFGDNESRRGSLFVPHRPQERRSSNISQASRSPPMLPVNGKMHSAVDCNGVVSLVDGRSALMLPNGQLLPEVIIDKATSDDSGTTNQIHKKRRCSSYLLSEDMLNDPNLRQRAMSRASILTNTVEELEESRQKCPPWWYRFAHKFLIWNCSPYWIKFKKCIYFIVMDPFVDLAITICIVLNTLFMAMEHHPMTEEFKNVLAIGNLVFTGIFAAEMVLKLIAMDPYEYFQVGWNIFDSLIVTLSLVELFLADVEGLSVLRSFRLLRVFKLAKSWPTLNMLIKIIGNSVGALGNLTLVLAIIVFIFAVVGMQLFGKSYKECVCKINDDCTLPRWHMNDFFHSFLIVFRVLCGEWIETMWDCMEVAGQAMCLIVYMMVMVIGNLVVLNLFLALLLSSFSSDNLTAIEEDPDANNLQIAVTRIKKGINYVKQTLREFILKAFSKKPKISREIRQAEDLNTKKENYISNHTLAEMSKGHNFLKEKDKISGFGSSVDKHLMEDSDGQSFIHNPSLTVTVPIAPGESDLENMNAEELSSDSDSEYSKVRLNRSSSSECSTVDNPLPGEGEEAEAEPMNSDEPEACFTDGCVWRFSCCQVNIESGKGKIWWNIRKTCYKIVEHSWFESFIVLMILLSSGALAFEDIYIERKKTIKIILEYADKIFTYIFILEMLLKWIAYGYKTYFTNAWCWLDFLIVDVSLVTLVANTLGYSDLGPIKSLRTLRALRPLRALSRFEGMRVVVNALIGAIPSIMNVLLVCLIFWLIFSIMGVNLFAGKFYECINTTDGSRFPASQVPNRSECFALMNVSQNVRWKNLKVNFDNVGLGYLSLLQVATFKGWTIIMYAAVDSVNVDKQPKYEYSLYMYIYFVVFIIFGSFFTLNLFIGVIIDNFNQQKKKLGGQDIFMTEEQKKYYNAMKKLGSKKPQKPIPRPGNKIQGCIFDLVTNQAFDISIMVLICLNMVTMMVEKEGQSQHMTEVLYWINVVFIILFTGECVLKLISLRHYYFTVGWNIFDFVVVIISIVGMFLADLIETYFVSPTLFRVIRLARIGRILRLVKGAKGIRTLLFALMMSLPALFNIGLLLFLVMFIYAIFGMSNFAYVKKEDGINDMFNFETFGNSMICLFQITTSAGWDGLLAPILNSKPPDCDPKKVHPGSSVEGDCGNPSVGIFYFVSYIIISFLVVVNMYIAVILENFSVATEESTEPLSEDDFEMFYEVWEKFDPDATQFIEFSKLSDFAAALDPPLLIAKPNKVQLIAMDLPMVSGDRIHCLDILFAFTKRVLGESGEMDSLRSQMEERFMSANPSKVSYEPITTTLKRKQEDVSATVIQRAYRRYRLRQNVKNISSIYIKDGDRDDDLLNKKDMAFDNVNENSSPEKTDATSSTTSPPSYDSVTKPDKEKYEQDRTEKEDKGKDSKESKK

Compound	IC50 [µM]
Cc1nc(-c2ccccc2Oc2ccc(S(=O)(=O)Nc3nccs3)cc2F)cs1 [Example 130, 3-fluoro-4-[2-(2-methyl-1,3-thiazol-4-yl)phenoxy]-N-1,3-thiazol-2-ylbenzenesulfonamide]	9.19
O=S(=O)(Nc1nccs1)c1ccc(Oc2ccccc2-c2ccccn2)c(F)c1 [Example 131, 3-fluoro-4-(2-pyridin-2-ylphenoxy)-N-1,3-thiazol-2-ylbenzenesulfonamide]	12.1
CCc1nnc(C)n1-c1ccc(Oc2ccc(S(=O)(=O)Nc3nccs3)cc2F)cc1 [Example 132, 4-[4-(3-ethyl-5-methyl-4H-1,2,4-triazol-4-yl)phenoxy]-3-fluoro-N-1,3-thiazol-2-ylbenzenesulfonamide]	17.3
O=S(=O)(Nc1nccs1)c1ccc(Oc2ccccc2C2CCCCO2)c(F)c1 (stereo not drawn) [Example 133, 3-fluoro-4-[2-(tetrahydro-2H-pyran-2-yl)phenoxy]-N-1,3-thiazol-2-ylbenzenesulfonamide]	11.6
N#Cc1cc(S(=O)(=O)Nc2ncc(Cl)s2)ccc1Oc1ccccc1Oc1ccccc1 [Example 134, N-(5-chloro-1,3-thiazol-2-yl)-3-cyano-4-(2-phenoxyphenoxy)benzenesulfonamide]	3.77
N#Cc1cc(S(=O)(=O)Nc2ncc(Cl)s2)ccc1Oc1ccccc1Oc1ccncc1 [Example 135, N-(5-chloro-1,3-thiazol-2-yl)-3-cyano-4-[2-(pyridin-4-yloxy)phenoxy]benzenesulfonamide]	0.73
N#Cc1cc(S(=O)(=O)Nc2ncc(Cl)s2)ccc1Oc1ccccc1OCc1ccccc1 [Example 136, 4-[2-(benzyloxy)phenoxy]-N-(5-chloro-1,3-thiazol-2-yl)-3-cyanobenzenesulfonamide]	2.7
Cn1cc(-c2ccc(Cl)cc2)c(Oc2ccc(S(=O)(=O)Nc3ncc(Cl)s3)cc2C#N)n1 [Example 137, 4-{[4-(4-chlorophenyl)-1-methyl-1H-pyrazol-3-yl]oxy}-N-(5-chloro-1,3-thiazol-2-yl)-3-cyanobenzenesulfonamide]	2.59
Cn1ncc(-c2ccccc2)c1Oc1ccc(S(=O)(=O)Nc2ncc(Cl)s2)cc1C#N [Example 138, N-(5-chloro-1,3-thiazol-2-yl)-3-cyano-4-[(1-methyl-4-phenyl-1H-pyrazol-5-yl)oxy]benzenesulfonamide]	38.7
Cc1cn(Cc2ccccc2)nc1Oc1ccc(S(=O)(=O)Nc2ncc(Cl)s2)cc1C#N [Example 139, 4-[(1-benzyl-4-methyl-1H-pyrazol-3-yl)oxy]-N-(5-chloro-1,3-thiazol-2-yl)-3-cyanobenzenesulfonamide]	5
CC(C)c1nn(-c2ccccc2Cl)cc1Oc1ccc(S(=O)(=O)Nc2ncc(Cl)s2)cc1C#N [Example 140, 4-{[1-(2-chlorophenyl)-3-isopropyl-1H-pyrazol-4-yl]oxy}-N-(5-chloro-1,3-thiazol-2-yl)-3-cyanobenzenesulfonamide]	3.41
N#Cc1cc(S(=O)(=O)Nc2ncc(Cl)s2)ccc1Oc1cc(C(F)(F)F)nn1-c1ccccc1 [Example 141, N-(5-chloro-1,3-thiazol-2-yl)-3-cyano-4-{[1-phenyl-3-(trifluoromethyl)-1H-pyrazol-5-yl]oxy}benzenesulfonamide]	1.23
N#Cc1cc(S(=O)(=O)Nc2ncc(Cl)s2)ccc1Oc1cc(C(F)(F)F)nn1Cc1ccccc1 [Example 142, 4-{[1-benzyl-3-(trifluoromethyl)-1H-pyrazol-5-yl]oxy}-N-(5-chloro-1,3-thiazol-2-yl)-3-cyanobenzenesulfonamide]	2.62
Cc1cc(Oc2ccc(S(=O)(=O)Nc3ncc(Cl)s3)cc2C#N)n(C2CCCCC2)n1 [Example 143, N-(5-chloro-1,3-thiazol-2-yl)-3-cyano-4-[(1-cyclohexyl-3-methyl-1H-pyrazol-5-yl)oxy]benzenesulfonamide]	>10
N#Cc1cc(S(=O)(=O)Nc2ncc(Cl)s2)ccc1Oc1ccccc1C1CC1 [Example 144, N-(5-chloro-1,3-thiazol-2-yl)-3-cyano-4-(2-cyclopropylphenoxy)benzenesulfonamide]	1.39
